Results taken from ChEMBL document CHEMBL1201862, “PubChem BioAssay data set” (2004).
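Growth conditions: 96-well plates. Treatment: test compound, 48 hours, 5 concentrations. Analysis: linear interpolation between bracketing concentrations; unreached endpoints set to highest concentration. Abbreviation: GI50, concentration required for 50% inhibition of growth.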 Activity calls are given as the source filed them. No stated cut-off is given here; in the data, active = GI50 up to about 1.1 µM and inactive = higher.

What was measured:
Test in all cases: NCI anticancer screen, dose series, 48 h
HCT-15 = tested on: HCT-15
SF-268 = tested on: SF-268
SF-295 = tested on: SF-295
PC-3 = tested on: PC-3
SW-620 = tested on: SW-620
786-0 = tested on: 786-0
EKVX = tested on: EKVX
COLO 205 = tested on: COLO 205
NCI/ADR-RES = tested on: NCI/ADR-RES
HCC 2998 = tested on: HCC 2998
NCI-H23 = tested on: NCI-H23
SK-MEL-2 = tested on: SK-MEL-2
KM12 = tested on: KM12
SK-MEL-5 = tested on: SK-MEL-5
IGROV-1 = tested on: IGROV-1
T47D = tested on: T47D
Malme-3M = tested on: Malme-3M
A549 = tested on: A549
HT-29 = tested on: HT-29
UACC-62 = tested on: UACC-62
HOP-62 = tested on: HOP-62
DU-145 = tested on: DU-145
OVCAR-8 = tested on: OVCAR-8
UO-31 = tested on: UO-31
SF-539 = tested on: SF-539
HCT-116 = tested on: HCT-116
LOX IMVI = tested on: LOX IMVI
OVCAR-5 = tested on: OVCAR-5
MOLT-4 = tested on: MOLT-4
SK-MEL-28 = tested on: SK-MEL-28
CCRF-CEM = tested on: CCRF-CEM
SNB-75 = tested on: SNB-75
MDA-MB-231 = tested on: MDA-MB-231
SNB-19 = tested on: SNB-19
RXF 393 = tested on: RXF 393
TK-10 = tested on: TK-10
HOP-92 = tested on: HOP-92
M14 = tested on: M14
RPMI-8226 = tested on: RPMI-8226
BT-549 = tested on: BT-549
K562 = tested on: K562
MDA-N = tested on: MDA-N
OVCAR-3 = tested on: OVCAR-3
SR = tested on: SR
A498 = tested on: A498
NCI-H522 = tested on: NCI-H522
MCF7 = tested on: MCF7
MDA-MB-435 = tested on: MDA-MB-435
Hs-578T = tested on: Hs-578T
HL-60 = tested on: HL-60
ACHN = tested on: ACHN
SN12C = tested on: SN12C
U-251 = tested on: U-251
CAKI-1 = tested on: CAKI-1
OVCAR-4 = tested on: OVCAR-4
NCI-H460 = tested on: NCI-H460
NCI-H226 = tested on: NCI-H226
SK-OV-3 = tested on: SK-OV-3
UACC-257 = tested on: UACC-257

Compound: COc1ccc(C(=O)/C=C/c2ccc(OCC(=O)O)cc2)cc1
- GI50 (HCT-15): > 100 µM
- GI50 (SF-268): 43.9 µM (inactive)
- GI50 (SF-295): > 100 µM (inactive)
- GI50 (PC-3): > 100 µM (inactive)
- GI50 (SW-620): 41.5 µM (inactive)
- GI50 (786-0): 60.1 µM (inactive)
- GI50 (EKVX): > 100 µM (inactive)
- GI50 (COLO 205): 70.3 µM (inactive)
- GI50 (NCI/ADR-RES): 83.4 µM (inactive)
- GI50 (HCC 2998): 27.7 µM (inactive)
- GI50 (NCI-H23): > 100 µM (inactive)
- GI50 (SK-MEL-2): 44.5 µM (inactive)
- GI50 (KM12): 51.5 µM (inactive)
- GI50 (SK-MEL-5): > 100 µM (inactive)
- GI50 (IGROV-1): > 100 µM (inactive)
- GI50 (T47D): 38.4 µM (inactive)
- GI50 (Malme-3M): 50.7 µM (inactive)
- GI50 (A549): > 100 µM (inactive)
- GI50 (HT-29): > 100 µM (inactive)
- GI50 (UACC-62): 52.1 µM (inactive)
- GI50 (HOP-62): > 100 µM (inactive)
- GI50 (DU-145): > 100 µM (inactive)
- GI50 (OVCAR-8): 74.3 µM (inactive)
- GI50 (UO-31): > 100 µM (inactive)
- GI50 (SF-539): 46.6 µM (inactive)
- GI50 (HCT-116): 47.1 µM (inactive)
- GI50 (LOX IMVI): 33.6 µM (inactive)
- GI50 (OVCAR-5): > 100 µM (inactive)
- GI50 (MOLT-4): 8.57 µM (inactive)
- GI50 (SK-MEL-28): 36.6 µM (inactive)
- GI50 (CCRF-CEM): 31.7 µM (inactive)
- GI50 (SNB-75): > 100 µM (inactive)
- GI50 (MDA-MB-231): 59.2 µM (inactive)
- GI50 (SNB-19): 98.6 µM (inactive)
- GI50 (RXF 393): > 100 µM (inactive)
- GI50 (TK-10): > 100 µM (inactive)
- GI50 (HOP-92): 31.5 µM (inactive)
- GI50 (M14): > 100 µM (inactive)
- GI50 (RPMI-8226): > 100 µM (inactive)
- GI50 (BT-549): 38.6 µM (inactive)
- GI50 (K562): 39.4 µM (inactive)
- GI50 (MDA-N): 34.4 µM (inactive)
- GI50 (OVCAR-3): 60.4 µM (inactive)
- GI50 (SR): 13 µM (inactive)
- GI50 (A498): > 100 µM (inactive)
- GI50 (NCI-H522): 36 µM (inactive)
- GI50 (MCF7): 42.8 µM (inactive)
- GI50 (MDA-MB-435): 32.8 µM (inactive)
- GI50 (Hs-578T): 70.1 µM (inactive)
- GI50 (HL-60): > 100 µM (inactive)
- GI50 (ACHN): > 100 µM (inactive)
- GI50 (SN12C): 71.3 µM (inactive)
- GI50 (U-251): 27.7 µM (inactive)
- GI50 (CAKI-1): > 100 µM (inactive)

Compound: COc1cc(C=C2C(C)=NN(c3cccc(Cl)c3)C23SCC(=O)N3c2nc3ccccc3s2)ccc1O (configuration not stated)
- GI50 (HCT-15): 30.4 µM
- GI50 (OVCAR-4): 36.2 µM (inactive)
- GI50 (SF-268): 23.2 µM (inactive)
- GI50 (SF-295): 33.6 µM (inactive)
- GI50 (PC-3): 21.3 µM (inactive)
- GI50 (SW-620): 27.3 µM (inactive)
- GI50 (NCI-H460): 35.6 µM (inactive)
- GI50 (786-0): 29.5 µM (inactive)
- GI50 (EKVX): 39.5 µM (inactive)
- GI50 (COLO 205): 16.9 µM (inactive)
- GI50 (NCI/ADR-RES): 33 µM (inactive)
- GI50 (HCC 2998): 24.3 µM (inactive)
- GI50 (NCI-H23): 30.1 µM (inactive)
- GI50 (SK-MEL-2): 19.4 µM (inactive)
- GI50 (KM12): 30.8 µM (inactive)
- GI50 (SK-MEL-5): 18.2 µM (inactive)
- GI50 (IGROV-1): 29.4 µM (inactive)
- GI50 (T47D): 33.3 µM (inactive)
- GI50 (Malme-3M): 16.5 µM (inactive)
- GI50 (A549): 29.6 µM (inactive)
- GI50 (HT-29): 33 µM (inactive)
- GI50 (UACC-62): 26.7 µM (inactive)
- GI50 (HOP-62): 26 µM (inactive)
- GI50 (DU-145): 32.4 µM (inactive)
- GI50 (OVCAR-8): 20.1 µM (inactive)
- GI50 (UO-31): 30.6 µM (inactive)
- GI50 (SF-539): 24.3 µM (inactive)
- GI50 (HCT-116): 24.7 µM (inactive)
- GI50 (LOX IMVI): 27.5 µM (inactive)
- GI50 (NCI-H226): 35.1 µM (inactive)
- GI50 (OVCAR-5): 46.3 µM (inactive)
- GI50 (MOLT-4): 15.8 µM (inactive)
- GI50 (SK-MEL-28): 33 µM (inactive)
- GI50 (CCRF-CEM): 4.56 µM (inactive)
- GI50 (MDA-MB-231): 20.8 µM (inactive)
- GI50 (SNB-19): 31.8 µM (inactive)
- GI50 (RXF 393): 29.2 µM (inactive)
- GI50 (TK-10): 35.3 µM (inactive)
- GI50 (HOP-92): 18 µM (inactive)
- GI50 (M14): 40.3 µM (inactive)
- GI50 (RPMI-8226): 13.4 µM (inactive)
- GI50 (SK-OV-3): 21.4 µM (inactive)
- GI50 (BT-549): 25.9 µM (inactive)
- GI50 (K562): 17.3 µM (inactive)
- GI50 (MDA-N): 31.5 µM (inactive)
- GI50 (OVCAR-3): 27 µM (inactive)
- GI50 (SR): 13.2 µM (inactive)
- GI50 (A498): 26.4 µM (inactive)
- GI50 (NCI-H522): 17.9 µM (inactive)
- GI50 (MCF7): 27.7 µM (inactive)
- GI50 (MDA-MB-435): 29.4 µM (inactive)
- GI50 (Hs-578T): 9.46 µM (inactive)
- GI50 (HL-60): 3.72 µM (inactive)
- GI50 (ACHN): 26.1 µM (inactive)
- GI50 (SN12C): 30.1 µM (inactive)
- GI50 (U-251): 18.8 µM (inactive)
- GI50 (UACC-257): 32.7 µM (inactive)
- GI50 (CAKI-1): 29.6 µM (inactive)
